Source: patent US20070043034A1, “Chlorine Ion Uptake Modulators and Uses Thereof” (priority 2005, published 2007)

Tests used:
KA-induced rat seizures = assay: Kainic acid (KA) induced seizures in rat pups, EEG recording in vivo; conditions: KA 2 mg/kg s.c.
Text: Kainic Acid (KA) is a commonly used agent for creating an in vivo neonatal-like seizure model in rats for study. It is believed that this seizure model closely parallels human neonatal seizure disorders. KA, a glutamate receptor agonist, was used to induce neonatal-like seizures in postnatal (P) 7-12 day male Wistar rats. The rats were equipped with electrodes including recording and reference electrodes by standard means. There are many known methods for measuring parameters of seizures, in this example electrical signals were digitized using an analogue-to-digital converter for example a DigiData 1322A (Axon Instuments USA). The sampling interval can vary depending on the desired target interval. In this example, the sampling interval per signal was 200 […]s (5 kHz). For data analysis, several computer programs exist for capturing and analyzing these seizure parameters such as Clamp 9.2 (Axon Instruments, USA) and Origon 5.0 (Microcal Software, USA) used here. Interictal spikes were determined by typical means utilizing band-pass filtered raw data.
Many known methods exist for analyzing the power levels of different frequency components in a signal such as a signal recorded from a seizure episode. For example, power spectrum analysis can be performed after applying a Hamming window function. Unless otherwise indicated, power was calculated in 1-2 min time windows by integrating the root mean square value of the signal in frequency bands from 1 to 100 Hz (EEC band) and from 200 to 500 Hz (fast ripple band).
Pharmaceutical compositions of the present invention can be administered to seizure-induced rats to test the seizure modulatory properties of the pharmaceutical composition. In one exemplary method, the inhibition of NKCCl and its affect on seizures in rat pups was studied. Two days after implantation of recording electrodes, six P9-P10 rats received subcutaneous injection of KA (2 mg/kg) and six P9-10 control rats received subcutaneous 0.9% sodium chloride saline injections. 10-20 minutes after KA injection regular pattern of behavioral signs started, involving scratching-like movements of the hindpaws, loss of balance and turning on the side. Recurrent interictal and ictal electroencephalographic patterns occurred 20-80 minutes (61.2±10.4 min; mean±se) after KA injection in all rats from this experimental group (FIG. 4B). […] Interictal spikes usually occurred synchronously in the left and right hemispheres. Frequency of the interictal spikes was 1.43±0.06 Hz (n=23 seizures in 6 rats). Before transition to ictal patterns, interictal spikes were usually followed by fast ripple (100-500 Hz) and gamma-frequency oscillations (20-50 Hz). Tonic-clonic seizures were the most common type of seizures induced by KA in P9-10 rats. Ictal-tonic phase lasted 12.6±1.4 s (16 seizures in 5 rats). Population spikes of 18.7±1.2 Hz were characteristic of the tonic phase of KA-induced seizures (FIG. 4C). Tonic discharges were followed by clonic bursts (FIG. 4C). Large amplitude population spikes followed by 100-200 Hz ripples and 200-1200 ms gamma frequency after discharges characterized the clonic bursts. The mean duration of the clonic phase was 36.4±5 s (25 seizures in 6 rats). The ictal patterns were followed by postictal depression (FIG. 4 B-4C). During ictal EEG activity, motor activity consisted of scratching, jerky movements, turning on the side or on the back and frequent tail shaking. Five to ten recurrent seizures with an average interval 379±24.5 s were followed by periodic epileptiform discharges (PLEDs) (FIG. 4D).
In one exemplary experiment, a pharmaceutical composition of the present invention comprising bumetanide was compared to phenobarbital for effects on KA-induced rat seizures. Two days after implantation of recording electrodes, twenty-two P9-12 age-matched rats received subcutaneous injection with KA (2 mg/kg). […]

[1] = test system: low-Mg^2+ induced recurrent seizures in the intact hippocampus; assay: Low-Mg2+ ACSF induced recurrent seizures in the intact hippocampus in vitro; type: cell-based, rat; conditions: phenobarbital 100 μM
Text: High expression level of the Na^+ K^+-2Cl^− (NKCCl) co-transporter in immature neurons causes the accumulation of chloride ions and a depolarized Cl^− equilibrium potential (ECl). This is linked to a higher seizure propensity and poor EEG response in neonates to the barbiturates and benzodiazepines, conventional anticonvulsant drugs that target Cl^−-permeable GABAA-receptor (GABAA-R) operated channels. […] Recurrent ictal-like seizures were induced by low-Mg^+ ACSF in intact hippocampal preparations in vitro. […] Bumetanide decreased both seizure frequency and seizure power.
FIGS. 11A-11C are graphs of low-Mg^2+πinduced recurrent seizures in the intact hippocampus in vitro. […] First and last seizures from 5 hour recording are shown on an expanded time scale. Right, corresponding power spectra in the 0.1-1000 Hz frequency band. […] Summary data are taken from ten hippocampi. […] Power of the first seizure in each recording was considered as 100%. Data are taken from 18 recordings in 10 preparations from P4-6 rats.
FIGS. 12A-12C are graphs showing low efficiency of phenobarbital in neonatal seizures. FIG. 12A is a graph showing extracellular field potential recording in the CA3 pyramidal cell layer in the intact hippocampus of a P5 rat. Continuous application of low-Mg^2+ ACSF induced recurrent tonic-clonic seizures. […] The right portion corresponds to power spectra in the 0.1-1000 Hz frequency range. […] Data are from ten experiments that were combined. FIG. 12C is a graph showing power of recurrent seizures before, during and after phenobarbital application. Power of the first seizure in each recording was considered as 100%. Seizures were not depressed by phenobarbital indicating its low efficiency.
FIGS. 13A-13C are graphs showing that alteration of Cl^−-transport by bumetanide enhanced efficacy of phenobarbital in neonatal seizures. FIG. 13A is a graph of extracellular field potential recording in the CA3 pyramidal cell layer in the intact hippocampus of a P5 rat. Application of low-Mg^2+ ACSF induced recurrent seizures. […] These are shown on an expanded time scale. The right portion of FIG. 13A is a power spectra of extracellular field potential activity before and during application of drugs. FIG. 13B is a graph showing inter-seizure intervals before, during and after application of drugs. In 75% of experiments seizures were abolished (ISI>120 min) by simultaneous application of phenobarbital and bumetanide. FIG. 13C is a graph showing power of recurrent seizures before, during and after simultaneous application of phenobarbital and bumetanide. Power of the first seizure in each recording was considered as 100%. Seizures were depressed by combination of drugs.
FIGS. 14A and 14B are graphs showing alteration of Cl^−-transport for early-life seizure therapy. […]

Na^+-K^+-ATPase = assay: Activity-dependent change of Cli after postsynaptic action potential trains in CA1 pyramidal neurons; type: cell-based, rat; conditions: in the presence of DHO 10 μM; 20 Hz, 2.5 min trains; P=0.27
Experimental: The GABAB receptor antagonist CGP 55845A (1 μM) was included in the bath for most experiments. Bumetanide was stored as a 50 mM stock solution in ethanol at 4° C. and then diluted to 10 μM in ACSF. Dihydroouabain (10 μM) was diluted into ACSF and bath applied.
Action potentials in current-clamped neurons was invoked by injecting depolarizing current pulses (1.5 ms, 2 nA) at 20 Hz for 2.5 min.
Persistent increases in Cli and the GABA reversal potential have been observed following trains of action potentials. Action potential trains have long been known to cause long-lasting increases in the activity of Na^+—K^+-ATPase and corresponding changes in RMP. If NKCCl-mediated transport were thermodynamically limited, then the changes in ECl observed following action potential trains could be due to altered Na^+ and K^+ transmembrane gradients. Without being bound by any theory, it is believed that of the two cations, Nai would be most labile and would have the most influence on the Cli at which NKCCl-mediated transport reached equilibrium. Steady-state ECl and Cl^− transport kinetics were measured before and after a 20 Hz, 2.5 minute train of action potentials. […]
FIGS. 10A-10D show activity-dependent increases in Cli. FIG. 10A is a graph showing that following a train of action potentials in the recorded cell (20 Hz, 2.5 min), Cli reached a new steady state. […]

[2] = P9-12 rats, phenobarbital 25 mg/kg or bumetanide 0.1-0.2 mg/kg i.p.

CCC1(c2ccccc2)C(=O)NC(=O)NC1=O [phenobarbital]
animals with recurrent ictal-clonic activity / EEG clonic seizures (KA-induced rat seizures; P9-12 rats, drug i.p. 10 min after KA (phenobarbital 25 mg/kg; bumetanide 0.1-0.2 mg/kg), 6 rats per group): 100% | frequency of the ictal-tonic discharges (KA-induced rat seizures; P9-12 rats, phenobarbital 25 mg/kg i.p.): 14±3 Hz | duration of ictal-clonic phase (KA-induced rat seizures; [2]): 12 ± 1.1 s | duration of ictal-tonic phase (KA-induced rat seizures; [2]): 5.2 ± 1.4 s | frequency of interictal spikes (KA-induced rat seizures; [2]): 1.56 ± 0.08 Hz | mean duration of single ictal episode (seizure including interictal and ictal phases) (KA-induced rat seizures; [2]): 27.4 ± 2.6 s | mean interval between seizures (KA-induced rat seizures; [2]): 241.3 ± 45.8 s | rats with ictal-tonic pattern / tonic-clonic seizures (KA-induced rat seizures; [2]): 33.3% | increase of power of EEG activity in the 20 minute window following seizure onset (KA-induced rat seizures; compared to pre-ictal baseline, phenobarbital 25 mg/kg or bumetanide 0.1-0.2 mg/kg i.p., saline control 444.7±136.3%): 248±40.8% | experiments in which seizure frequency was significantly reduced [1]: 70% | seizure power ([1]; bumetanide 10 μM or both, 120 min application, intact hippocampus of P4-6 rats): no significant effect

C[C@@H]1O[C@@H](O[C@H]2C[C@@H](O)[C@]3(CO)[C@H]4[C@H](O)C[C@]5(C)[C@@H]([C@@H]6COC(=O)C6)CC[C@]5(O)[C@@H]4CC[C@]3(O)C2)[C@H](O)[C@H](O)[C@H]1O [DHO, dihydroouabain]
effect of action potential trains on Cli (Na^+-K^+-ATPase): no effect
